“Also recorded” adds a separate entry of the source. Non-standard residues stand in square brackets, D forms with d. Residues, ends and D or L forms follow the SMILES beside them. No end group written: not given here.
Tests used:
[1] = system: cybrids bearing the m·3243A>G mutation in mt-tRNA^Leu(UUR); experiment: Fluorescence confocal microscopy of Cy5-linked constructs, uptake and mitochondrial co-localization; assay type: cell-based, human; conditions: 0.25 μM, 24 hours, Mitotracker Red
Excerpt: Top row (constructs): exogenously administered constructs covalently linked to a fluorescent dye (Cy5) are localized within cells.
Middle row (Mitotracker red): mitochondria within the same cells shown in the top row are highlighted by Mitotracker red, a dye able to link specifically and exclusively to mitochondria.
The cells used for the experiments are trans-mitochondrial hybrids (hereafter named cybrids) bearing the m·3243A>G mutation in mt-tRNA^Leu(UUR), which is associated with the MELAS syndrome.
Cells were incubated for 24 hours with 0.25 μM of constructs. Half an hour before imaging, cells were stained with Mitotracker Red. Finally, fluorescence signals were detected with a laser scanning confocal microscope. PCC: Pearson's Correlation Coefficient (mean±SEM of six images).
Constructs made of compounds listed in Table 1 linked to the Cy5 fluorophore via maleimide cross-linker, were administered to sub-confluent cybrid cell cultures at 0.25 μM in glucose medium. […] The fluorescence images were analyzed with the ImageJ software (14, https://imagej.nih.gov/ij/, 1997-2018) to determine the Pearson's correlation coefficient.
The uptake and localization of Cy5-conjugated constructs in cybrids was assessed by flow cytometry, confocal microscopy, and immunoblot analysis on isolated mitochondria (FIG. 1). […]

[2] = Plasma stability: incubation in human plasma, UPLC-MS quantification; assay type: in vitro ADME; conditions: for plasma stability compared with another peptide: human plasma, FIG. 4; for degradation in human plasma: no time stated
Method: Panel B. Time course decay of β32_33, PMT, PMT-8a and PMT-8b incubated up to 72 h with human plasma from four healthy subjects. […] The Y axis indicates the signal intensity of the four peptides. Samples of plasma were obtained from healthy volunteers and immediately used for the analysis. Either β32_33 peptide or PMT for the experiment in panel A, and β32_33 peptide, PMT, PMT-8a or PMT-8b for the experiment in panel B, was incubated in plasma at a final concentration of 0.2 mM, at 37° C., up to 3 h (A) or 72 h (B). At the indicated time points, i.e., T0 and 3 h (A) or T0, 1.5, 3, 6 and 72 h (B), aliquots of 200 μL were treated with 3 volumes of acetonitrile containing 1% formic acid and extracted by a solid phase extraction system to remove proteins and phospholipids. Samples were dried under vacuum, resuspended in 100 μL of 0.1% formic acid containing 5% acetonitrile, and analyzed with a Water Acquity H-Class UPLC system equipped with a single-quadruple mass detector with electrospray ionization source. Samples were separated onto a reverse phase C18 column by performing a gradient with two mobile phases consisting of 0.1% formic acid in water and 0.1% formic acid in acetonitrile at a flow rate of 0.5 mL/min. Quantification was performed by Selected lon Recording (SIR): at m/z=917.88, corresponding to the [M+2 H]^2+ion obtained from either β32_33 or PMT; at m/z=961.42, corresponding to the [M+H]^+ion obtained from PMT-8a; and at m/z=869.48, corresponding to the [M+H]^+ion obtained from PMT-8b.
In order to evaluate whether compounds (βp and d-βp) are stable in blood or hydrolyzed by plasma peptidases, we set up a chromatographic assay to evaluate compound concentration after incubation in human plasma.
Blood was drawn by venipuncture in vacutainer containing EDTA as an anticoagulant.
Two different samples from healthy volunteers were used. Plasma was separated by centrifugation and immediately used for the experiments. Each compound was dissolved in 500 uL plasma at a final concentration of 0.2 mM, and split into two aliquots, one of which was immediately analyzed to assess the basal compound level; the other was incubated at 37° C. for 3 hours under gentle shaking. In order to perform chromatographic analysis the samples were treated with 3 volumes of acetonitrile containing 1% formic acid, and then extracted by using the Ostro™ pass-through sample preparation system to remove proteins and phospholipids. Samples were dried under vacuum and then resuspended in 100 uL of 0.1% formic acid containing 5% acetonitrile, then directly injected onto the chromatographic column.
Chromatographic analyses were performed on a Water Acquity H-Class UPLC system (Waters, Milford, MA, USA), including a quaternary solvent manager (QSM), a sample manager with a flow through needle system (FTN), a photodiode array detector (PDA) and a single-quadruple mass detector with electrospray ionization source (ACQUITY QDa). Analyses were performed on a reverse phase C18 column (75 mm×3.2 mm i.d., 2.5 μm particle size). The mobile phase was solvent A, 0.1% formic acid in water, and solvent B, 0.1% formic acid in acetonitrile. The flow rate was 0.5 mL/min, the column temperature was set at 25° C. and the elution was performed by linearly increasing the concentration of solvent B up to 70% in 7 minutes. Mass spectrometric detection was performed in the positive electrospray ionization mode, using nitrogen as the nebulizer gas. Analyses were performed in the Total lon Current (TIC) mode with a mass range of 100-1200 m/z. The capillary voltage was 0.8 kV, cone voltage 8 V, ion source temperature 120° C. and probe temperature 600° C. Quantification of each compound was performed by Selected lon Recording (SIR) at m/z 917.88, corresponding to the […]

[3] = system: m·3243A>G mt-tRNA^Leu(UUR) mutant cybrids; experiment: Cell viability, Trypan blue dye exclusion, galactose vs glucose medium; assay type: cell-based, human; conditions: 5 μM, galactose medium, 24 hours
Method: For viability assessment, cells were plated in either glucose or galactose medium. The reason for this is that a viability phenotype can be appreciated in cells growing on galactose, which forces cells to rely on mitochondrial respiration, but not in cells growing on glucose. After 24 hours incubation, the number of viable cells in the galactose medium was normalized to the number of viable cells in glucose at the same time point, which represents the normal growth condition. Data are compared with the value of mutant cells incubated with vehicle only. Mean±SEM of at least three independent experiments is shown.
For viability assessment, cells were plated in either glucose or galactose medium. The reason for this is that a viability phenotype can be appreciated in cells growing on galactose, which forces cells to rely on mitochondrial respiration, but not in cells growing on glucose. After 24 hours incubation the number of viable cells in galactose medium was normalized to the number of viable cells in glucose (that represents the normal growth condition) at the same time point. Data are compared with the value of mutant cells incubated with vehicle only. Means±SEM of at least two independent experiments are shown.
Previously established osteosarcoma derived (143B.TK-) cybrid cell lines from patients, which bear either the m·3243A>G mutation in mt-tRNA^Leu(UUR) or the m·8344A>G mutation in mt-tRNA^Lys, and controls were used (generous gift from Dr Valeria Tiranti and Dr Valerio Carelli).
Cybrid cells were cultured in Dulbecco's modified Eagle's medium (DMEM), supplemented with 4.5 g/l d-glucose, 10% foetal bovine serum (FBS), 2 mM I-glutamine, 50 μg/ML uridine, 100 U/mL penicillin, and […] (referred to as glucose medium) in a humidified atmosphere of 95% air and 5% CO2 at 37° C. For cell viability experiments, cells were grown either in glucose medium or in glucose-free DMEM, supplemented with 5 mM galactose, […] sodium pyruvate, and 10% FBS (referred to as galactose medium). The reason for using the latter medium is that a pathological phenotype can be appreciated in cells growing on galactose, which forces cells to rely on mitochondrial respiration, but not in cells growing on glucose.
[…] Cells were switched in glucose or galactose and after 24 hours cell viability was measured by the Trypan blue dye exclusion assay. Cells were harvested with 0.25% trypsin and 0.2% EDTA, washed, suspended in PBS in the presence of Trypan blue solution (Sigma-Aldrich) at 1:1 ratio and counted using a hemocytometer. The number of viable cells in galactose medium was expressed as a percentage of the number of cells in glucose medium.
(§1) To evaluate the effect of the compounds on viability, cybrids were grown in glucose-free medium supplemented with galactose (galactose medium), a condition that both forces cells to rely on the mt respiratory chain for ATP synthesis and causes a significant growth reduction in the presence of mutations.
as §1, with “PMT and M-PMT” for “the compounds”

[4] = system: m·3243A>G mutant cybrids, m·8344A>G mutant cybrids and healthy control cells; experiment: Mitochondrial ToxGlo Assay (cyto- and mitotoxicity)
Method: Images show the effect of increasing PMT concentrations on healthy and mutant cells, compared with the effect of a cytotoxic (C1) and a mitotoxic (C2) agent, evaluated using the Mitochondrial ToxGlo™ Assay.
The X and Y axis show the compounds incubated with cells and the ratio between fluorescent and luminescent signal, respectively. In this assay, fluorescence increase indicates a decrease in cell membrane integrity, and luminescence decrease indicates a decrease in cellular ATP levels. […] The horizontal black line represents fluorescence/luminescence signal ratio of untreated cells. WT: wild type; 3243: cells bearing the mutation m·3243A>G in mt-tRNA^Leu(UUR); L-8344 and H-8344: cells bearing low and high load of mutation m·8344A>G in mt-tRNA^Lys.
Cybrids were plated on a 96-well plate in normal growth conditions (i.e., glucose medium) and treated with different PMT concentrations. […] Fluorescence and luminescence were measured with a GloMax Multi+Luminometer. […]
Mitochondrial toxicity exerted by PMT was measured using the Mitochondrial ToxGlo™ Assay (Promega Italia Srl., Milano, Italy) according to the manufacturer's protocol. […] Subsequently, cells were incubated with specific reagents and fluorescence or luminescence were measured with a GloMax Multi+Luminometer (Promega Italia Srl., Milano, Italy).

Molecule | penetration of cell membranes and co-localization with mitochondria [1] | plasma stability compared with another peptide [2] | remaining at 72 h, 0.2 mM ([2]; human, human plasma from healthy volunteers, second experiment, plasma of four healthy volunteers, 72 h, read-out: peptide present after incubation in plasma) | degradation in human plasma [2] | viability of mutant cybrids vs non treated mutant cells [3] | effect on fluorescence and luminescence (positive controls) ([4]; 400 μg/ml digitonin (C1) or 100 μl sodium azide (C2), three hours) | cyto- and mito-toxicity ([4]; 5, 10, 20 μM (up to 20 μM), mutant and wild-type cells) | detectable degradation in plasma ([2]; second experiment, plasma of four healthy volunteers, up to 72 h)
CC[C@@H](C)[C@@H](NC(=O)[C@@H](CC(C)C)NC(=O)[C@@H](C)NC(=O)[C@H](NC(=O)[C@@H](CCCNC(=N)N)NC(=O)[C@H]1CCCN1C(=O)[C@@H](CO)NC(=O)[C@H](N)CC(C)C)[C@H](C)O)C(=O)O [PMT-8b, d(L)d(S)d(P)d(R)d(T)d(A)d(L)d(I)] (H-[dL][dS][dP][dR][dT][dA][dL][dI]-OH; N-terminus and C-terminus assumed) | Penetrate Cell Membranes and Co-Localize with Mitochondria | even more stable than the full-length 16-residue long PMT; also recorded: slower degradation than the β32_33 peptide | 80% | does not undergo degradation at all | significantly improved | – | – | –
[N-]=[N+]=[N-] [sodium azide, reference compound] | – | – | – | – | – | a decrease in luminescence and has no effect on fluorescence | – | –
d(K)d(K)d(S)d(F)d(L)d(S)d(P)d(R) ([dK][dK][dS][dF][dL][dS][dP][dR]) [PMT-8a, PMT fragment comprising PMT residues 1-8] | Penetrate Cell Membranes and Co-Localize with Mitochondria | even more stable than the full-length 16-residue long PMT; also recorded: slower degradation than the β32_33 peptide | – | does not undergo degradation at all | – | – | neither cytotoxic nor mitotoxic | did not undergo detectable degradation

Reference: patent US20250171762A1, “THERAPEUTICAL PEPTIDOMIMETIC” (UNIVERSITA' DEGLI STUDI DI ROMA "LA SAPIENZA", priority 2021, published 2025)
